Reference: PMC8910697, “Development of VPC-70619, a Small-Molecule N-Myc Inhibitor as a Potential Therapy for Neuroendocrine Prostate Cancer” (International Journal of Molecular Sciences, 2022)

Legend:
Type in all cases: cell-based
[1] = tested on: N-Myc-Max transcription activity (LNCaP-NMYC cells); assay: Myc transcription assay (Cignal Myc reporter, luciferase) in LNCaP-NMYC cells; details: LNCaP-NMYC; for transcription inhibition activity (in words): screened at 10 µM and 5 µM
Procedure: To determine the optimal substitutions on the free phenyl ring, we used the active scaffold for a second substructure search against the ZINC15 database to identify a set of 181 analogues for further validation (VPC-70617 to -70799, presented in Supplementary Table S1). Compounds were tested for their inhibition of a N-Myc-Max luciferase transcription activity assay at 5 and 10 µM Figure 2a. Herein, we inspected all the proposed substitutions on the scaffold to discern the features required to construct a possible SAR model for inhibitors targeting N-Myc-Max/DBD complex (Figure 2b).
LNCaP-NMYC cells were transfected using TransIT-2020 transfection reagents per the manufacturer’s protocol. Cells were plated at a density of 10,000 cells per well of a 96-well plate. Following 24 h treatment with 5 µM or 10 µM of the compounds, the Myc reporter activity was measured using the Cignal Myc Reporter Assay Kit from Qiagen (#336841) (Hilden, Germany) per the manufacturer’s instructions.

[2] = tested on: IMR32 cells; assay: Cell viability (CellTiter-Glo), IMR32; details: Homo sapiens, IMR-32
Procedure: (§1) The 54 compounds were tested at 10 µM for their inhibition of the IMR32 human neuroblastoma cell line, in which the MYCN gene is amplified and actively expressed (Table 3). HO15.19 cell line (Myc-negative) was used in parallel as a compound specificity control.
(§2) Viability of N-Myc positive (IMR32and NCI-H660) and negative (HO15.19) cells were determined using the CellTiter-Glo Luminescent Cell Viability Assay (Promega cat. G7570) (Madison, WI, USA). Cells were seeded into a 96-well white plate with a clear bottom: 10,000 cells per well for the IMR32 cells cultured in EMEM supplemented with 10% FBS, 2000 HO15.19 cells per well in Eagle’s minimum essential medium (EMEM) supplemented with 10% FBS, and 2000 cells per well for the NCI-H660 neuroendocrine cells cultured in RPMI supplemented 5% FBS, 1% Insulin-Transferrin-Selenium (Thermo Fisher, 41400-045), 10nM b-estradiol (Sigma, E8875), 10nM hydrocortisone (Sigma H0888) and 1% matrigel. Following 24 h incubation, the cells were treated with serial dilutions of the derivatives along with the respective parental compound starting at 25 μM for 72 h. Cell Titer Glo was added to each well at a ratio of 1:1 and incubated on a shaker at RT for 2 min. Luminescence and IC50 was measured with the TECAN InfiniteM200 plate reader (Männedorf, Switzerland).

[3] = tested on: HO15.19 cells; assay: Cell viability counter-screen (CellTiter-Glo), Myc-negative HO15.19; details: Rattus norvegicus, HO15.19, 10 µM; Myc-negative specificity control
Procedure: as §1, §2

SMILES	transcription inhibition activity (in words) [1]	inhibition at 10 µM [2] [%]	inhibition at 10 µM [3] [%]	transcription inhibition activity at 5 µM (in words) [1]
N#Cc1ccc(NNC(=O)c2ccc(Cl)c(F)c2)c(C(F)(F)F)c1 [compound 70621]	good inhibition at both concentrations tested	98.8	68.6	
N#Cc1ccc(NNC(=O)c2ccc(Cl)c(Br)c2)c(C(F)(F)F)c1 [compound 70622]	good inhibition at both concentrations tested	99.4	36.4	
N#Cc1ccc(NNC(=O)c2ccc(Cl)cc2O)c(C(F)(F)F)c1 [compound 70633]	activity was maintained	93.6	77	
N#Cc1ccc(NNC(=O)c2ccc(Br)c(Cl)c2)c(C(F)(F)F)c1 [compound 70635]	strong increase in inhibition activity	7.5	11.8	
N#Cc1ccc(NNC(=O)c2cc(F)cc(F)c2)c(C(F)(F)F)c1 [compound 70639]	better inhibition activity	60.2	66.1	
N#Cc1ccc(NNC(=O)c2cc(Cl)ccc2O)c(C(F)(F)F)c1 [compound 70640]	better inhibition activity	93.5	76.7	
N#Cc1ccc(NNC(=O)c2cc(F)cc(Cl)c2)c(C(F)(F)F)c1 [compound 70644]	better inhibition activity	88.3	69.5	
N#Cc1ccc(NNC(=O)c2ccc(F)c(C(F)(F)F)c2)c(C(F)(F)F)c1 [compound 70647]	strong increase in inhibition activity	88.6	70.9	
N#Cc1ccc(NNC(=O)c2cc(Cl)cc(Br)c2)c(C(F)(F)F)c1 [compound 70650]	very strong transcription inhibition	92.1	80.2	
N#Cc1ccc(NNC(=O)c2cc(Cl)cc(Cl)c2)c(C(F)(F)F)c1 [compound 70652]	very strong transcription inhibition	92.5	80.7	
N#Cc1ccc(NNC(=O)c2ccc(SC(F)(F)F)cc2)c(C(F)(F)F)c1 [compound 70658]	active	46.9	57.2	
N#Cc1ccc(NNC(=O)c2cc(F)c(F)cc2Cl)c(C(F)(F)F)c1 [compound 70659]	strong increase in inhibition activity	31	31.5	
N#Cc1ccc(NNC(=O)c2ccc(Cl)c(C#N)c2)c(C(F)(F)F)c1 [compound 70662]		11	9.9	recovered the activity
N#Cc1ccc(NNC(=O)c2ccc([N+](=O)[O-])cc2)c(C(F)(F)F)c1 [compound 70663]	maintained good transcription inhibition activity	28.9	7.9	
N#Cc1cccc(C(=O)NNc2ccc(C#N)cc2C(F)(F)F)c1 [compound 70672]		18	8.1	
Cc1cc(Cl)cc(C(=O)NNc2ccc(C#N)cc2C(F)(F)F)c1 [compound 70675]	better inhibition activity	65.4	65.9	
Cc1cc(C(=O)NNc2ccc(C#N)cc2C(F)(F)F)cc(C)c1F [compound 70679]	strong increase in inhibition activity	1.1	7.3	
N#Cc1ccc(NNC(=O)c2ccc(F)c(Cl)c2)c(C(F)(F)F)c1 [compound 70680]	strong increase in inhibition activity	52.9	64	
N#Cc1ccc(NNC(=O)c2ccc(SC(F)F)cc2)c(C(F)(F)F)c1 [compound 70682]		11	22.9	

SMILES	transcription inhibition activity (in words) [1]	inhibition at 10 µM [2] [%]	inhibition at 10 µM [3] [%]	transcription inhibition activity at 5 µM (in words) [1]
COc1cc(C(=O)NNc2ccc(C#N)cc2C(F)(F)F)ccc1Cl [compound 70685]		24.7	15.2	recovered the activity
N#Cc1ccc(NNC(=O)c2cc(F)c(F)c(F)c2)c(C(F)(F)F)c1 [compound 70686]	strong increase in inhibition activity	82.2	75.8	
N#Cc1ccc(NNC(=O)c2ccc(C(F)(F)F)c(F)c2)c(C(F)(F)F)c1 [compound 70693]	strong increase in inhibition activity	22.4	0.2	
N#Cc1ccc(NNC(=O)c2cc(Cl)c(N)c(Cl)c2)c(C(F)(F)F)c1 [compound 70695]	better inhibition activity	77.1	41.2	
N#Cc1ccc(NNC(=O)c2ccc(F)c(C#N)c2)c(C(F)(F)F)c1 [compound 70696]	strong increase in inhibition activity	15.1	13.2	
N#Cc1ccc(Cl)c(C(=O)NNc2ccc(C#N)cc2C(F)(F)F)c1 [compound 70698]	high transcription inhibition activity	35.4	27.3	
COc1cc(Cl)cc(C(=O)NNc2ccc(C#N)cc2C(F)(F)F)c1 [compound 70700]	better inhibition activity	60.5	42	
N#Cc1ccc(NNC(=O)c2cccc(I)c2)c(C(F)(F)F)c1 [compound 70703]	better inhibition activity	18.5	13.5	
N#Cc1ccc(NNC(=O)c2ccc(C(F)(F)F)cc2Cl)c(C(F)(F)F)c1 [compound 70704]	strong increase in inhibition activity	10.6	13.6	
N#Cc1ccc(NNC(=O)c2ccc(C(F)(F)F)c(Cl)c2)c(C(F)(F)F)c1 [compound 70705]	good inhibition at both concentrations tested	60.7	61.8	
N#Cc1ccc(NNC(=O)c2ccc(Cl)cc2C(F)(F)F)c(C(F)(F)F)c1 [compound 70706]	activity was maintained	54.3	65.6	
N#Cc1ccc(NNC(=O)c2ccc(F)c(F)c2F)c(C(F)(F)F)c1 [compound 70715]	strong increase in inhibition activity	14.4	39.9	
N#Cc1ccc(NNC(=O)c2c(O)cc(Cl)cc2Cl)c(C(F)(F)F)c1 [compound 70719]	recovered the inhibition activity	95	76.5	
N#Cc1ccc(NNC(=O)c2cc(Cl)cc(C(F)(F)F)c2)c(C(F)(F)F)c1 [compound 70722]	very strong transcription inhibition	94.7	79.3	
N#Cc1ccc(NNC(=O)c2ccc(F)c(I)c2)c(C(F)(F)F)c1 [compound 70726]	strong increase in inhibition activity	75.6	66.2	
N#Cc1ccc(NNC(=O)c2cc(F)c(Cl)cc2Cl)c(C(F)(F)F)c1 [compound 70730]	recovered the inhibition activity	87.5	77.1	
CC(C)(c1ccc(C(=O)NNc2ccc(C#N)cc2C(F)(F)F)cc1)C(F)(F)F [compound 70733]	active	57.4	57.8	
N#Cc1ccc(NNC(=O)c2ccc(F)c(Br)c2)c(C(F)(F)F)c1 [compound 70734]	strong increase in inhibition activity	86.5	77.8	
N#Cc1ccc(NNC(=O)c2cc(F)cc(Br)c2)c(C(F)(F)F)c1 [compound 70739]	better inhibition activity	87.2	75.8	
